This passage reports IC50 results from US8969542B2, “HPV polyepitope constructs and uses thereof” (priority 2007, dated 2015).

Some targets named below: HLA A2902 (Homo sapiens, UniProt P04439, A270S/D101N/D185E/E176V/E277Q/E87Q/F33T/G231S/H175R/I121M/I218V/I322F/K168Q/L300P/L318F/M331R/P208A/P217A/Q86L/T323A/T345S/V100A/V358M); HLA A3002 (Homo sapiens, UniProt P04439, D101N/D140H/D185E/E176R/F33S/G80R/H175R/K168Q/Q94H/R138E/R41S/V100E); HLA A2601 (Homo sapiens, UniProt P04439, A114D/A173T/A270S/D101N/D185E/E277Q/E87N/F33Y/G231S/I121R/I218V/K168Q/L180W/L300P/L318F/P208A/P217A/Q86R/Q94H/R138Q/S129P/T187R/T323A/T345S/V100A/V358M); HLA A3301 (Homo sapiens, UniProt P04439, A270S/D185E/E176V/E277Q/E87N/F33T/G231S/H175R/I121M/I218V/I322F/K168Q/K210R/L300P/L318F/M331R/P217A/Q86R/Q94H/R138Q/T323A/T345S/T97I/V358M/Y195H); HLA A6801 (Homo sapiens, UniProt P04439, A269V/D185E/E176V/E277Q/E87N/F33Y/G231S/I121M/I166T/I218V/L180W/L300P/L318F/N151K/P208A/P217A/Q86R/R169H/T345S); HLA A1101 (Homo sapiens, UniProt P04439, A114D/D185E/E176A/F33Y/L180Q/S129P/T187R); HLA A3101 (Homo sapiens, UniProt P04439, A270S/D185E/E176V/E277Q/F33T/G231S/G80R/H175R/I121M/I218V/I322F/K168Q/L300P/L318F/M331R/P217A/Q94H/R138Q/T323A/T345S/T97I/V358M); HLA A0202 (Homo sapiens, UniProt P04439, D140Y/D185E/D98H/E176V/E277Q/G131W/G231S/I119L/I121R/I166T/I218V/L180W/L300P/L318F/N151K/N90K/P208A/P217A/Q67R/Q86G/Q94H/R138H/R169H/T345S); HLA A0206 (Homo sapiens, UniProt P04439, D140Y/D185E/D98H/E176V/E277Q/F33Y/G131W/G231S/I119V/I121R/I166T/I218V/L300P/L318F/N151K/N90K/P208A/P217A/Q86G/Q94H/R138H/R169H/T345S); HLA A6802 (Homo sapiens, UniProt P04439, A269V/D140Y/D185E/E176V/E277Q/E87N/F33Y/G231S/I121R/I166T/I218V/L180W/L300P/L318F/N151K/P208A/P217A/Q86R/R138H/R169H/S129P/T345S/V36M); HLA A0203 (Homo sapiens, UniProt P04439, A173T/D140Y/D185E/D98H/E277Q/G131W/G231S/I119V/I121R/I166T/I218V/L180W/L300P/L318F/N151K/N90K/P208A/P217A/Q86G/Q94H/R138H/R169H/T345S); HLA A0201 (Homo sapiens, UniProt P04439, D140Y/D185E/D98H/E176V/E277Q/G131W/G231S/I119V/I121R/I166T/I218V/L300P/L318F/N151K/N90K/P208A/P217A/Q86G/Q94H/R138H/R169H/T345S).

Holding throughout (assay): HLA class I competition binding assay using soluble HLA
The next assay deals with T1, HLA A0301 (Homo sapiens, UniProt P04439).
T1 construct: endogenous in cells

The term IC50 denotes the midpoint of a concentration-inhibition curve. Read a high IC50 as a need for much substance.

Where no end group is shown, it is not given here.

Take `CC(C)C[C@H](NC(=O)CNC(=O)[C@@H](NC(=O)[C@H](CC(N)=O)NC(=O)[C@@H](NC(=O)[C@H](CC(C)C)NC(=O)[C@H](CCCCN)NC(=O)[C@H](CCC(=O)O)NC(=O)[C@H](CC(C)C)NC(=O)[C@@H](N)[C@@H](C)O)[C@@H](C)O)[C@@H](C)O)C(=O)N[C@@H](Cc1ccc(O)cc1)C(=O)O` [compound 26]: the IC50 is 2380 nM on HLA A2902, 476 nM on HLA A3002 and 265 nM at HLA A2601.
In the case of ATCVSHRGLY [compound 25], the IC50 at HLA A2601 stood at 646 nM.
As for ATTPIIHLK [compound 58], the IC50 was more than 20000 nM at HLA A3301; 2.5 nM on HLA A6801; 10 nM on HLA A0301; 1.2 nM on HLA A1101; 34 nM at HLA A3101.
CLYLHIQSL [compound 6]: the half-maximal inhibitory concentration (IC50) on HLA A0202 was determined as 45 nM; at HLA A0206, 100 nM; at HLA A6802 it was 1780 nM.
As for ELDPVDLLCY [compound 71], the IC50 at HLA A3002 was more than 20000 nM; on HLA A2601, 2110 nM.
Consider FLFTDLTIV [compound 53], for which the IC50 at HLA A0202 is 1.3 nM; at HLA A0206, 20 nM; at HLA A0203, 3.5 nM; at HLA A6802, 1900 nM.
Turning to FVVYRDSIPK [compound 36], the IC50 was 473 nM at HLA A3301; 176 nM on HLA A6801; 3440 nM on HLA A0301; 2500 nM at HLA A1101; 8 nM on HLA A3101.
Take GTLGIVCPV [compound 11]: the 50% inhibitory concentration (IC50) on HLA A0201 was 20 nM.
Take ILYAHIQCL [compound 27]: the half-maximal inhibitory concentration (IC50) at HLA A0202 is 8.5 nM; at HLA A0206 it was 236 nM; on HLA A6802, more than 20000 nM.
KLLSKLLCV [compound 7]: the 50% inhibitory concentration (IC50) at HLA A0201 stood at 31 nM.
For KLTNKGICDL [compound 54], the IC50 was 440 nM at HLA A0202, 484 nM at HLA A0206, 585 nM on HLA A0203 and more than 20000 nM on HLA A6802.
As to KLTNTGLYNV [compound 31], the half-maximal inhibitory concentration (IC50) on HLA A0202 stood at 2.9 nM; at HLA A0206 it was 83 nM; at HLA A6802 it was 688 nM.
LQDKILDHY [compound 67]: the IC50 was 836 nM at HLA A3002 and 5000 nM at HLA A2601.
For the molecule LSQMVQWAY [compound 1], the IC50 worked out at 0.93 nM on HLA A3002 and 6450 nM on HLA A2601.
LTDVSIACVY [compound 69]: the IC50 on HLA A2601 amounted to 8200 nM.
Turning to QTEPDTSNY [compound 48], the IC50 on HLA A2601 was more than 20000 nM.
Consider SLVFLLCFSV [compound 74], for which the IC50 at HLA A0201 turned out to be 8.5 nM; on HLA A6802, 20 nM.
As to STAAALYWYR [compound 56], the concentration for half-maximal inhibition (IC50) at HLA A3301 came out at 47 nM; on HLA A6801 it was 12 nM; on HLA A0301, 198 nM; on HLA A1101, 10 nM; on HLA A3101 it was 5.6 nM.
For SVYGTTLER [compound 60], in that order: 853 nM, 4 nM, 22 nM, 7 nM and 75 nM.
As to TLQEIVLHV [compound 77], the IC50 on HLA A0202 came to 30 nM; at HLA A0203, 5.1 nM; at HLA A6802, 2460 nM.
Turning to TLYAHIQCL [compound 72], the half-maximal inhibitory concentration (IC50) at HLA A0201 came to 34 nM.
Consider VVLLLVRYK [compound 12], for which the IC50 at HLA A3301 is 6.1 nM; at HLA A6801, 76 nM; at HLA A0301, 6.3 nM; on HLA A1101 it was 4.1 nM; on HLA A3101, 0.1 nM.
Consider YQFAFKDLCV [compound 76], for which the half-inhibitory concentration (IC50) was found to be 1.3 nM on HLA A0202, 10 nM on HLA A0206, 4.2 nM at HLA A0203 and 3700 nM on HLA A6802.
For the molecule YVVWDSIYYI [compound 73], the half-maximal inhibitory concentration (IC50) at HLA A0206 is 20 nM; at HLA A0203, 248 nM; at HLA A6802, 30 nM.
